{"source": "patent US20070077261A1", "about": "(priority 2005, published 2007)", "origin": "cited, not measured here", "conditions": "amount dissolving in 2 ml of glycerin; The Merck Index, 11th Edition", "data": [{"molecule": "NC(N)=O", "note": "[urea]", "values": [{"measurement": "solubility of urea in glycerin", "result": 1, "unit": "gram"}]}]}
